The test system of data set [1] is inflammatory cytokines such as TNF-alpha, IL-1β, IL-6 and IL-8. In words: Release of inflammatory cytokines from LPS-stimulated human whole blood (cytometric bead array). It counts as cell-based. To be noted: whole blood diluted 1:5, LPS 10ng/ml, 1 to 20 mM, 6 h; Figure 6. The protocol:
Human heparinized whole blood was diluted with RPMI 1640 medium (ThermoFisher Scientific) (1:5) and incubated with LPS (10ng/ml) and increasing concentration of ethyl pyruvate (A-D) or ethyl lactate (E-H) (1 to 20 mM) for 6 h at 37°C with 5% CO2. Following incubation, the plates were centrifuged at 2000g for 10 min and the proinflammatory cytokines were analysed by cytometric bead array using a FACSCalibur and the CellQuestTMSoftware (BD Biosciences).

Data set [2] concerns Neuraminidase (EC 3.2.1.18). The experiment in a line: Neuraminidase activity assay (colorimetric kit, Sigma Aldrich MAK121). It counts as biochemical. The conditions noted are these: maximum activity set 100%; mean of three independent experiments; Figure 4. The protocol: Neuraminidase (EC 3.2.1.18) also known as sialidase is an enzyme that hydrolyzes terminal sialic acid residues on polysaccharide chains. It is predominantly expressed on the surface of viruses and bacteria. For activity measurement, the activity was measured using the neuraminidase activity kit from Sigma Aldrich (Cat.No.: MAK121). Accordingly, the neuraminidase activity is determined by an enzymatic essay in which the sialic acid released by neuraminidase results in the colorimetric product directly proportional to neuraminidase activity in the sample. The reaction master mixture contained assay buffer, (+/-) substrate, cofactors, neuraminidase, and dye-reagent. The activity is expressed as units/L and maximum activity was arbitrarily set 100%. The effect of ethyl pyruvate and ethyl lactate on enzyme activity was evaluated by comparing the change of the absorbance against the samples with substrate (maximum activity) and without the substrate (blank).

For the next data set, the system named is influenza virus H9N2. It counts as cell-based. To be noted: MDCK II cells, H9N2, 1 h infection, 2 days culture; ethyl pyruvate 42 mM; Figure 5.

In the case of `CCOC(=O)C(C)O` (centres unmarked) [ethyl lactate], the “release of inflammatory cytokines (TNF-alpha, IL-1β, IL-6, IL-8)” value in data set [1] is reported as “effectively inhibited”. Also, the activity of neuraminidase result in data set [2] is given as “only minimum inhibitory effect”. The “cytopathic effect of the influenza virus (cellular structures and confluency)” value in the data set with influenza virus H9N2 was “does not protect MDCK II cells from the cytopathic effect of the virus”. Besides, the “toxic effect on MDCK II cells” value in the data set on MDCK II cells is recorded as “no toxic effect”.
On to `CCOC(=O)C(C)=O` [ethyl pyruvate, Ethyl pyruvate], for which the “release of inflammatory cytokines (TNF-alpha, IL-1β, IL-6, IL-8)” value in data set [1] is “effectively inhibited”. Moreover, the activity of neuraminidase result in data set [2] is listed as “inhibits activity of neuraminidase in a concentration-dependent manner”. In addition, in the data set on influenza virus H9N2, the “cytopathic effect of the influenza virus (cellular structures and confluency)” value is “the cellular structures and confluency is preserved”. Further, the “toxic effect on MDCK II cells” value in the data set with MDCK II cells was “no toxic effect”.

For the origin of these results see patent EP4329743B1 (priority 2021, dated 2022).
